Results published in ChEMBL document CHEMBL5653595 (J Biol Chem, 2003).
Calls of active or inactive are those of the source. The rule behind the calls is not given here.

Legend:
[1] = molecular target: T1, Inhibitor of nuclear factor kappa-B kinase subunit epsilon (Homo sapiens) (UniProt Q14164); experiment: Inhibition of GST-tagged IKKE (unknown origin) expressed in High five cells using LDDRHDSGLDSMKDEEY as substrate incubated for 5 mins in presence of [gamma33P]ATP by liquid scintillation counter analysis
T1 sequence (whole entry): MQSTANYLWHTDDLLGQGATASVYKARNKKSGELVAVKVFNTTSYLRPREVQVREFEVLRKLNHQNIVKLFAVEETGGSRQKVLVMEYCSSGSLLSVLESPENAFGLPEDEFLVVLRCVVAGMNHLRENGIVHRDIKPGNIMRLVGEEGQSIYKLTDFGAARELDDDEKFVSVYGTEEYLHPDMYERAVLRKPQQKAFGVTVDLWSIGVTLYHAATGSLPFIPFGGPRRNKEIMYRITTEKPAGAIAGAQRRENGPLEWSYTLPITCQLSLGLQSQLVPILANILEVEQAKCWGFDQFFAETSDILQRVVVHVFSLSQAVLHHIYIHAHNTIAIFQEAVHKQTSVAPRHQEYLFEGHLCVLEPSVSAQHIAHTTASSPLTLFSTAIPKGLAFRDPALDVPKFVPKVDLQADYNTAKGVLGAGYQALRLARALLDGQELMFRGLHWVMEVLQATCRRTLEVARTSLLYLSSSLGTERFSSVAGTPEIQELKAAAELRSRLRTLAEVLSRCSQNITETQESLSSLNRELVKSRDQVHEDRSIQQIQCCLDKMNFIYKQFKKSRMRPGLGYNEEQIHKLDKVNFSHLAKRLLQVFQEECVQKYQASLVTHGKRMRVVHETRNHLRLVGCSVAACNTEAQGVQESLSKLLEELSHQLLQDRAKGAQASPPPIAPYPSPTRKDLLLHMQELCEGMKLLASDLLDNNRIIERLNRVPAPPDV

[2] = molecular target: Protein kinase C alpha type (Homo sapiens) (UniProt P17252); experiment: Inhibition of recombinant human PKCalpha at 100 uM
[3] = molecular target: T2, Protein kinase C zeta type (Homo sapiens) (UniProt Q05513); experiment: Inhibition of recombinant human PKCzeta at 100 uM
T2 sequence (whole entry): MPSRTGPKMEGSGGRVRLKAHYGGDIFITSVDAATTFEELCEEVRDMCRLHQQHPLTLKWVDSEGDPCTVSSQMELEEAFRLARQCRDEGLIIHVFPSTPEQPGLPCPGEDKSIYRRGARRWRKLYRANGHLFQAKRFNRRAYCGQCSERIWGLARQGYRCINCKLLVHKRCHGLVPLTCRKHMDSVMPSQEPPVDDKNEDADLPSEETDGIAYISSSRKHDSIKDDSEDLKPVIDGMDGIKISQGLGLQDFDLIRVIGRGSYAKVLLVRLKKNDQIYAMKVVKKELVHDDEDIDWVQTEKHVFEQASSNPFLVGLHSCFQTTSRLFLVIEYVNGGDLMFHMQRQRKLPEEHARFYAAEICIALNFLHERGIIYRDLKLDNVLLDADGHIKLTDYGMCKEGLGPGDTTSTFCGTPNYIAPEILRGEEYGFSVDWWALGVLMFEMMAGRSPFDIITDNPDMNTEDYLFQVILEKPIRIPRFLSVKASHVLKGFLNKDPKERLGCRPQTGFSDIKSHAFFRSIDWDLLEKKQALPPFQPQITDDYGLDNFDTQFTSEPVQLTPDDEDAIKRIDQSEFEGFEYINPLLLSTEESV

[4] = molecular target: Epidermal growth factor receptor (Homo sapiens) (UniProt P00533); experiment: Inhibition of recombinant human Her1 at 100 uM
[5] = molecular target: Receptor tyrosine-protein kinase erbB-2 (Homo sapiens) (UniProt P04626); experiment: Inhibition of recombinant human Her2 at 100 uM
[6] = molecular target: Mitogen-activated protein kinase 14 (Homo sapiens) (UniProt Q16539); experiment: Inhibition of recombinant human P38alpha at 100 uM
[7] = molecular target: MAP kinase-activated protein kinase 2 (Homo sapiens) (UniProt P49137); experiment: Inhibition of recombinant human MAPKAPK2 at 100 uM
[8] = molecular target: T3, Tyrosine-protein kinase JAK3 (Homo sapiens) (UniProt P52333); experiment: Inhibition of recombinant human JAK3 at 100 uM
T3 sequence (whole entry): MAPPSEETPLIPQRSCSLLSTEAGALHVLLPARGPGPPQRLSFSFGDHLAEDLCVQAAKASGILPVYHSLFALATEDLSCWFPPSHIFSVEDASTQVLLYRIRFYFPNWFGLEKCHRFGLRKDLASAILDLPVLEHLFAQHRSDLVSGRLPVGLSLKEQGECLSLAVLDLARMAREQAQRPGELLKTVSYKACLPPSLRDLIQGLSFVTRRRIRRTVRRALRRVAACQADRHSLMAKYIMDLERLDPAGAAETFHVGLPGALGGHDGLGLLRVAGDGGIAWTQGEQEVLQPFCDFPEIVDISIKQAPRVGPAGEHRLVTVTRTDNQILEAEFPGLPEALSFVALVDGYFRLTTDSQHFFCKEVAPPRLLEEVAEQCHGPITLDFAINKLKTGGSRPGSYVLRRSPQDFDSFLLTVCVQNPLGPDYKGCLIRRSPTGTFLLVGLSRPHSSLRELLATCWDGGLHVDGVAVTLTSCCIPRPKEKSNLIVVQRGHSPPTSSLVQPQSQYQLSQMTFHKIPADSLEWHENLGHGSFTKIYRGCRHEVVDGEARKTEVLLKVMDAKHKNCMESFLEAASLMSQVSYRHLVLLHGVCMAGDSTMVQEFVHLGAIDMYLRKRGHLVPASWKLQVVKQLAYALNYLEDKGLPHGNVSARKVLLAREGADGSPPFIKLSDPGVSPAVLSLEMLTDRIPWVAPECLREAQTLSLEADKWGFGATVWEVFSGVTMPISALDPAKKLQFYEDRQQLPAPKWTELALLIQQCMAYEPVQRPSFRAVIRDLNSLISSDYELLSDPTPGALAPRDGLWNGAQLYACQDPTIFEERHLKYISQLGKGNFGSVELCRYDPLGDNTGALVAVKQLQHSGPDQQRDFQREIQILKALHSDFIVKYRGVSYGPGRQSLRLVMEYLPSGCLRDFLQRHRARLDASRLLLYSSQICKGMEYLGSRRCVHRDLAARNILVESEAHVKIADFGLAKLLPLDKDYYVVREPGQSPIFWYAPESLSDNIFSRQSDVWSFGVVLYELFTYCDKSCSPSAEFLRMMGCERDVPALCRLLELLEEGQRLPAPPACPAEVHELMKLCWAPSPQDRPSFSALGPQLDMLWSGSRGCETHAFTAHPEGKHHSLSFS

[9] = molecular target: T4, Tyrosine-protein kinase ITK/TSK (Homo sapiens) (UniProt Q08881); experiment: Inhibition of recombinant human EMT at 100 uM
T4 sequence (whole entry): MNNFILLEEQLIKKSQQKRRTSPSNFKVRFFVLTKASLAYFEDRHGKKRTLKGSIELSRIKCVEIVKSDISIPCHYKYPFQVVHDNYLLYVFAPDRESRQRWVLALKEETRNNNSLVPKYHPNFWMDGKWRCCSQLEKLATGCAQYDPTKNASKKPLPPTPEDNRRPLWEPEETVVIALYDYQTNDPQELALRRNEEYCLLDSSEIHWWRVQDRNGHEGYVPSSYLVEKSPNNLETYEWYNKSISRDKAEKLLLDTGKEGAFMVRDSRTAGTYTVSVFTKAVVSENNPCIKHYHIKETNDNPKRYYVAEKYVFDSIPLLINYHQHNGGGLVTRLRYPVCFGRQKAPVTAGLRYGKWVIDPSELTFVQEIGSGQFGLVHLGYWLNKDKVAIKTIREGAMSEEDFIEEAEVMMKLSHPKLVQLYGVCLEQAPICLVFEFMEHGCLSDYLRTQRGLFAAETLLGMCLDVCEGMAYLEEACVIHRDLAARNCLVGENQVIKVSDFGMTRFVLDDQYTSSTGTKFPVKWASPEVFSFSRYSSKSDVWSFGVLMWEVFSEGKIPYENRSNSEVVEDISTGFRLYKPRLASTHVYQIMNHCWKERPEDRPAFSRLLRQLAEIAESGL

[10] = molecular target: Tyrosine-protein kinase Lck (Homo sapiens) (UniProt P06239); experiment: Inhibition of recombinant human LCK at 100 uM
Homo sapiens = species: Homo sapiens; experiment: Inhibition of recombinant human MAPK at 100 uM
[11] = molecular target: Mitogen-activated protein kinase 1 (Homo sapiens) (UniProt P28482); experiment: Inhibition of recombinant human ERK2 at 100 uM
[12] = molecular target: Insulin-like growth factor 1 receptor (Homo sapiens) (UniProt P08069); experiment: Inhibition of recombinant human IGF1R at 100 uM
THP-1 [13] = experiment: Cytotoxicity against human THP-1 cells by trypan blue exclusion assay; type: toxicity, cell-based
[14] = molecular target: MAP kinase-activated protein kinase 2 (Homo sapiens) (UniProt P49137); experiment: Inhibition of LPS-stimulated MAPKAPK2 activation in human THP-1 cells at 100 uM using [33P]ATP as substrate pre incubated for 60 mins followed by LPS-stimulation for 30 mins; type: cell-based; settings: time 90.0 min
[15] = molecular target: Signal transducer and activator of transcription 3 (Homo sapiens) (UniProt P40763); experiment: Inhibition of EGF-stimulated STAT3 phosphorylation in human NCI-H292 cells at 100 uM pre incubated for 60 mins followed by […] stimulation for 5 mins by immunoblot analysis; type: cell-based; settings: time 65.0 min
THP-1 [16] = experiment: Antiinflammatory activity against LPS-induced human THP-1 cells assessed as reduction in TNFalpha cytokine level preincubated for 1 hr followed by LPS-stimulation and measured after 6 hrs by enzyme immunoassay; type: functional, cell-based
THP-1 [17] = experiment: Antiinflammatory activity against LPS-induced human THP-1 cells assessed as reduction in IL-1beta cytokine level preincubated for 1 hr followed by LPS-stimulation and measured after 6 hrs by enzyme immunoassay; type: functional, cell-based
THP-1 [18] = experiment: Antiinflammatory activity against LPS-induced human THP-1 cells assessed as reduction in IL-8 cytokine level preincubated for 1 hr followed by LPS-stimulation and measured after 6 hrs by enzyme immunoassay; type: functional, cell-based
THP-1 [19] = experiment: Antiinflammatory activity against LPS-induced human THP-1 cells assessed as reduction in IL-6 cytokine level preincubated for 1 hr followed by LPS-stimulation and measured after 24 hrs by enzyme immunoassay; type: functional, cell-based
[20] = Aqueous solubility of compound; type: physicochemical; settings: buffer
[21] = Cmax in BALB/c mouse at 10 mg/kg, po measured upto 8 hrs by LC-MS-MS analysis; type: ADME, organism-based; settings: in vivo
[22] = Tmax in BALB/c mouse at 10 mg/kg, po measured upto 8 hrs by LC-MS-MS analysis; type: ADME, organism-based; settings: in vivo
[23] = Half life in BALB/c mouse at 2 mg/kg, iv measured upto 8 hrs by LC-MS-MS analysis; type: ADME, organism-based; settings: in vivo
[24] = Volume of distribution at steady state in BALB/c mouse at 2 mg/kg, iv measured upto 8 hrs by LC-MS-MS analysis; type: ADME, organism-based; settings: in vivo, read-out: Vdss
[25] = Total clearance in BALB/c mouse at 2 mg/kg, iv measured upto 8 hrs by LC-MS-MS analysis; type: ADME, organism-based; settings: in vivo
[26] = Oral bioavailability in BALB/c mouse at 10 mg/kg measured upto 8 hrs by LC-MS-MS analysis; type: ADME, organism-based; settings: in vivo
Mus musculus [27] = experiment: Antiinflammatory activity against LPS-induced po dosed BALB/c mouse assessed as reduction in TNFalpha cytokine level pretreated for 1 hr followed by LPS-stimulation and measured after 90mins by enzyme immunoassay; type: functional, organism-based; settings: dose 1-100 mg/kg, time 150.0 min
Mus musculus [28] = experiment: Antiinflammatory activity against LPS-induced BALB/c mouse assessed as reduction in TNFalpha cytokine level at 10 mg/kg, po pretreated for 1 hr followed by LPS-stimulation and measured after 90mins by enzyme immunoassay; type: functional; set-up: scale not given: the % may be the effect or the level left; settings: time 150 min, 2.5 h
Mus musculus [29] = experiment: Antiinflammatory activity against LPS-induced BALB/c mouse assessed as reduction in TNFalpha cytokine level at 100 mg/kg, po pretreated for 1 hr followed by LPS-stimulation and measured after 90mins by enzyme immunoassay; type: functional; set-up: scale not given: the % may be the effect or the level left; settings: time 150 min, 2.5 h

Chain of MAP kinase-activated protein kinase 2 (Homo sapiens) (P49137 whole entry, looked up): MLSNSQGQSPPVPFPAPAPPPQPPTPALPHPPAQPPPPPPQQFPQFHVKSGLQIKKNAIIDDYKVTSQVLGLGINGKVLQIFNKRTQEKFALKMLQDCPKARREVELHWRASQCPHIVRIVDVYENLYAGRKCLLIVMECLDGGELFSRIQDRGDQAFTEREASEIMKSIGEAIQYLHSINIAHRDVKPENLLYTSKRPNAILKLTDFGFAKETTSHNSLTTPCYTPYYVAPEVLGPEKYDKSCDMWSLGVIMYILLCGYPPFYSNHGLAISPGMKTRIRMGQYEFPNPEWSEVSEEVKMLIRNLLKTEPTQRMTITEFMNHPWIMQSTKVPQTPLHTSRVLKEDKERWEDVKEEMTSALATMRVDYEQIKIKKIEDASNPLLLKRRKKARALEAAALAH
Chain of Signal transducer and activator of transcription 3 (Homo sapiens) (P40763 whole entry): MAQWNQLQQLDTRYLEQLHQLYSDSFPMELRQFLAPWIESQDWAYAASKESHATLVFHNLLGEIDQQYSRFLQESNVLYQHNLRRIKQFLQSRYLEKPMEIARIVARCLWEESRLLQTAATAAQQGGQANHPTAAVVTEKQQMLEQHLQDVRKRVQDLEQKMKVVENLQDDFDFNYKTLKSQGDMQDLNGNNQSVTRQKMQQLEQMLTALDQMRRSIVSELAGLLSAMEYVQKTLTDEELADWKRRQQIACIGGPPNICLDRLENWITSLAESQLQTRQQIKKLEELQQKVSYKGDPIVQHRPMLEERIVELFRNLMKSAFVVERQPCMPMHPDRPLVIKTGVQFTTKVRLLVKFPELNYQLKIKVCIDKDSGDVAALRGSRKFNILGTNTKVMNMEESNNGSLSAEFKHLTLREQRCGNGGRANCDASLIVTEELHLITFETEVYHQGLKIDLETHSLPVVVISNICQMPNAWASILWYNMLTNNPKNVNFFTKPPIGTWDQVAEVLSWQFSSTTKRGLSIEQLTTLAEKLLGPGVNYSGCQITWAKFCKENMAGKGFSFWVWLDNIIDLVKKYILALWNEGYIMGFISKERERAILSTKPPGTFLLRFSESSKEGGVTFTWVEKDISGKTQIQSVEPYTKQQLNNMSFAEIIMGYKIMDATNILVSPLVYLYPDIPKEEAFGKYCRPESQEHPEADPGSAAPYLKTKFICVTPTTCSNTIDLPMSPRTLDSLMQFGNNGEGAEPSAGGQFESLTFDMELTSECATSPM
Chain of Epidermal growth factor receptor (Homo sapiens) (P00533 whole entry): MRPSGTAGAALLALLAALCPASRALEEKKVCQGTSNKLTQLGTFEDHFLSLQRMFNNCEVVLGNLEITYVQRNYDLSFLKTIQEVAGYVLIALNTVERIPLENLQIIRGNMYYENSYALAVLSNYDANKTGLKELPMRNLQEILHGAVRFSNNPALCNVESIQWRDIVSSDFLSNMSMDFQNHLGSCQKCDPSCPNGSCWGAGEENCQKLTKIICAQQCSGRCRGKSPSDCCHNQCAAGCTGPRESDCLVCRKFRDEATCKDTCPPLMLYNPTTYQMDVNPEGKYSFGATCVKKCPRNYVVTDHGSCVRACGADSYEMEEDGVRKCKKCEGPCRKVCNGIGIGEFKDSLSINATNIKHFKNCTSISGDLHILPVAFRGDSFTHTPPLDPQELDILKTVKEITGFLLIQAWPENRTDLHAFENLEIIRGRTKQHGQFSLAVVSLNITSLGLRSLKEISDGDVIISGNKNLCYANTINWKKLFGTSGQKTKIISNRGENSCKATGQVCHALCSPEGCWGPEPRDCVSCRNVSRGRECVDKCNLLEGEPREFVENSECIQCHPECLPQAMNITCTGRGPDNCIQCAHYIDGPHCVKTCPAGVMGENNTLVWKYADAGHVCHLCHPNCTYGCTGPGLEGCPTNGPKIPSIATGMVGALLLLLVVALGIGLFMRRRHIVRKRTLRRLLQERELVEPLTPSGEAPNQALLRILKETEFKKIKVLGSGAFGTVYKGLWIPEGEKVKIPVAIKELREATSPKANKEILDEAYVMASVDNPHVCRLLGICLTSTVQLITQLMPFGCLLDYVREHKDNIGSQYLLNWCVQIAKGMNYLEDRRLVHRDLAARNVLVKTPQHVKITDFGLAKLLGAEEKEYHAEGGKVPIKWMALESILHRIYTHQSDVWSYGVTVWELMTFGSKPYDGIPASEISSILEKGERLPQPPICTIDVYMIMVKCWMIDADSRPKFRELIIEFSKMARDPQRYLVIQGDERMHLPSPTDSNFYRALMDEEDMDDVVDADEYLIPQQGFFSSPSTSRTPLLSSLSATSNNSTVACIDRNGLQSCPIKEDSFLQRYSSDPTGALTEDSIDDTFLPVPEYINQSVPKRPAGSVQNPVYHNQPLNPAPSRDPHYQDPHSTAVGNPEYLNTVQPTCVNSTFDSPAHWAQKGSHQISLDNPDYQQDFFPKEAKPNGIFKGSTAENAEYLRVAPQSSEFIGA
Chain of Tyrosine-protein kinase Lck (Homo sapiens) (P06239 2-509 limits assumed): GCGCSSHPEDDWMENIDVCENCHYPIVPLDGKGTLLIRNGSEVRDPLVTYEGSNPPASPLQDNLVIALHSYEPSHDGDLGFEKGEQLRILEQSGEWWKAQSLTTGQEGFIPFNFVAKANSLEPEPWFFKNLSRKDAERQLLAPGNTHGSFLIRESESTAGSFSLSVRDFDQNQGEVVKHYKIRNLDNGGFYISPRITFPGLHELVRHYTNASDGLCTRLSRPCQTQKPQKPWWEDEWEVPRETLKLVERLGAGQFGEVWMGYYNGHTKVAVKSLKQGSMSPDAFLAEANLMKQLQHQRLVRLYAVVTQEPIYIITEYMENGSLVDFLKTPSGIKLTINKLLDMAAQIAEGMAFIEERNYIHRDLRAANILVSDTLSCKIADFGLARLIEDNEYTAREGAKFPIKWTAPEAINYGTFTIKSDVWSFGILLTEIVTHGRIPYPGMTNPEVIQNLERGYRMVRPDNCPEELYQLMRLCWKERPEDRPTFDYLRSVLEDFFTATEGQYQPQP
Chain of Mitogen-activated protein kinase 14 (Homo sapiens) (Q16539 whole entry): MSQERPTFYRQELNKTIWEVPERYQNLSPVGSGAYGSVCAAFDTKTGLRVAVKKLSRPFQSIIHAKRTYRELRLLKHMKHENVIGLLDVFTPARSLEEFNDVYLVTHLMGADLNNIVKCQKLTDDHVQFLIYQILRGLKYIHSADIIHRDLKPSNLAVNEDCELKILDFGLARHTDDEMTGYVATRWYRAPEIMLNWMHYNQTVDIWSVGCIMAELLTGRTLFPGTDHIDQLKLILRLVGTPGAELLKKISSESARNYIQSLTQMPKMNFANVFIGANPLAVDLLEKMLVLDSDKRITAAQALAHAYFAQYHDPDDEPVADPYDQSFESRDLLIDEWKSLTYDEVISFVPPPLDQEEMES
Chain of Mitogen-activated protein kinase 1 (Homo sapiens) (P28482 whole entry): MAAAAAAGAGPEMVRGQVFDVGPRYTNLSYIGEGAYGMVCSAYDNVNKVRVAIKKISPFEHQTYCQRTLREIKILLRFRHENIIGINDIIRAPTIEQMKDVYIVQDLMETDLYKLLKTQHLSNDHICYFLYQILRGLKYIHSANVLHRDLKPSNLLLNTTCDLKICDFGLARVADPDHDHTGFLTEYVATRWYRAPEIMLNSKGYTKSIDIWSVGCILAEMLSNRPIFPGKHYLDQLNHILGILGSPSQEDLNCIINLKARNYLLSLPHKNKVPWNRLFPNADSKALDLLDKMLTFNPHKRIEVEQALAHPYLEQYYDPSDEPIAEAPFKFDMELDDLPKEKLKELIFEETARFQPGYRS

Cc1ccc2nc(NCCN)c3ncc(C)n3c2c1 [BMS-345541]
inhibition [1]: inactive | inhibition [2]: inactive | inhibition [3]: inactive | inhibition [4]: inactive | inhibition [5]: inactive | inhibition [6]: inactive | inhibition [7]: inactive | inhibition [8]: inactive | inhibition [9]: inactive | inhibition [10]: inactive | inhibition (Homo sapiens): inactive | inhibition [11]: inactive | inhibition [12]: inactive | Activity (THP-1 [13]): Non-Toxic | inhibition [14]: inactive | inhibition [15]: inactive | IC50 (THP-1 [16]): 1000 nM | IC50 (THP-1 [17]): 1000 nM | IC50 (THP-1 [18]): 1000 nM | IC50 (THP-1 [19]): 1000 nM | solubility [20]: Soluble | Cmax [21]: 1600 nM | Tmax [22]: 0.52 h | half-life [23]: 2.2 h | Vd [24]: 18.5 L/kg | clearance [25]: 114 mL/min/kg | bioavailability [26]: ~100% | Activity (Mus musculus [27]): Dose-Dependent Effect | Activity (Mus musculus [28]): 50% | Activity (Mus musculus [29]): 100%
